Among the data in PubChem BioAssay AID1259407 (Chemical Carcinogenesis Research Information System (CCRIS), 2018) are mutagenic call values, retold here.

The test system of this data set is CCRIS mutagenicity, Ames/micronucleus/aberration tests. In words: CCRIS mutagenicity studies.
Setting [1] is: Test System: AMES SALMONELLA TYPHIMURIUM, Strain/Indicator: TA98, Metabolic Activation: NONE, Method: PREINCUBATION
[2] abbreviates: Test System: AMES SALMONELLA TYPHIMURIUM, Strain/Indicator: TA100, Metabolic Activation: NONE, Method: STANDARD PLATE.

Calls of active or inactive are those of the source. No rule for the calls is given here.

Turning to `Nc1cc2ccccc2c2ccccc12`, the mutagenic call by setting is: (Test System: AMES SALMONELLA TYPHIMURIUM, Strain/Indicator: TA98, Metabolic Activation: RAT, LIVER, S-9, AROCLOR 1254 (2 OR 4%), Method: STANDARD PLATE) “active; positive”; (Test System: AMES SALMONELLA TYPHIMURIUM, Strain/Indicator: TA100, Metabolic Activation: RAT, LIVER, S-9, AROCLOR 1254 (4%), Method: STANDARD PLATE) “active; positive”; (Test System: AMES SALMONELLA TYPHIMURIUM, Strain/Indicator: TA1535, Metabolic Activation: RAT, LIVER, S-9, AROCLOR 1254 (4%), Method: STANDARD PLATE) “active; positive”; (Test System: AMES SALMONELLA TYPHIMURIUM, Strain/Indicator: TA1537, Metabolic Activation: RAT, LIVER, S-9, AROCLOR 1254 (4%), Method: STANDARD PLATE) “active; positive”.

Turning to `CC(C)(Oc1ccc(C2CC2(Cl)Cl)cc1)C(=O)O` (stereo unspecified), the mutagenic call runs as follows: (Test System: AMES SALMONELLA TYPHIMURIUM, Strain/Indicator: TA98, Metabolic Activation: NONE) “inactive; negative”; (Test System: AMES SALMONELLA TYPHIMURIUM, Strain/Indicator: TA98, Metabolic Activation: RAT, LIVER, S-9, AROCLOR 1254) “inactive; negative”; (Test System: AMES SALMONELLA TYPHIMURIUM, Strain/Indicator: TA102, Metabolic Activation: NONE) “inactive; negative”; (Test System: AMES SALMONELLA TYPHIMURIUM, Strain/Indicator: TA102, Metabolic Activation: RAT, LIVER, S-9, AROCLOR 1254) “inactive; negative”; (Test System: AMES SALMONELLA TYPHIMURIUM, Strain/Indicator: TA104, Metabolic Activation: NONE) “inactive; negative”; (Test System: AMES SALMONELLA TYPHIMURIUM, Strain/Indicator: TA104, Metabolic Activation: RAT, LIVER, S-9, AROCLOR 1254) “inactive; negative”. Further, the mutagenic call (Test System: UDS RAT HEPATOCYTES, Strain/Indicator: BROMODEOXYURIDINE INCORP, Metabolic Activation: NONE, Method: FLOW CYTOMETRIC ANALYSIS) is “inactive; negative”; the mutagenic call (Test System: UDS RAT HEPATOCYTES, Strain/Indicator: THY INCORP, Metabolic Activation: NONE, Method: AUTORADIOGRAPHY) is “inactive; negative”; the mutagenic call (Test System: UDS RAT HEPATOCYTES, Strain/Indicator: THY INCORP, Metabolic Activation: NONE, Method: LIQUID SCINTILLATION COUNTING) was “inactive; negative”.

Turning to `O=[N+]([O-])c1cccc2nc3ccccc3nc12`, the mutagenic call is “active; positive” (Test System: AMES SALMONELLA TYPHIMURIUM, Strain/Indicator: TA98(NR), Metabolic Activation: NONE, Method: PREINCUBATION) and “inactive; negative” under setting [1].

Regarding `NC(CS)C(=O)O` (stereo unspecified), the mutagenic call (Test System: AMES SALMONELLA TYPHIMURIUM, Strain/Indicator: TA98, Metabolic Activation: RAT LIVER S-9, CHLOROPHENE, Method: STANDARD PLATE (COMPOUND HEATED AT 250 DEGREES CELSIUS FOR 20 MIN)) is “inactive; negative”.

For `O=C(O)Cc1ccccc1[N+](=O)[O-]`, the mutagenic call was “inactive; negative” under setting [1]; “active; positive” (Test System: AMES SALMONELLA TYPHIMURIUM, Strain/Indicator: TA100, Metabolic Activation: NONE, Method: PREINCUBATION); “active; positive” (Test System: AMES SALMONELLA TYPHIMURIUM, Strain/Indicator: TA1535, Metabolic Activation: NONE, Method: PREINCUBATION); “inactive; negative” (Test System: AMES SALMONELLA TYPHIMURIUM, Strain/Indicator: TA1537, Metabolic Activation: NONE, Method: PREINCUBATION); “active; positive” (Test System: AMES SALMONELLA TYPHIMURIUM, Strain/Indicator: TA1538, Metabolic Activation: NONE, Method: PREINCUBATION).

Regarding `CNP(=O)(N(C)C)N(C)C`, the mutagenic call was “inactive; negative” (Test System: AMES SALMONELLA TYPHIMURIUM, Strain/Indicator: TA100, Metabolic Activation: NONE, Method: SUSPENSION) and “active; positive” (Test System: AMES SALMONELLA TYPHIMURIUM, Strain/Indicator: TA100, Metabolic Activation: RAT, LIVER, S-9, AROCLOR 1254, Method: SUSPENSION).

As for `Cc1cc(Cl)ccc1N`, the mutagenic call is “inactive; negative; authors report that the study may not have allowed sufficient time for” (End Point: IN VITRO CHROMOSOMAL ABERRATIONS, Test System: CHINESE HAMSTER OVARY CELLS, Metabolic Activation: NONE); “active; positive” (End Point: IN VITRO CHROMOSOMAL ABERRATIONS, Test System: CHINESE HAMSTER OVARY CELLS, Metabolic Activation: RAT, LIVER, S-9, AROCLOR 1254); “inactive; negative” (Test System: AMES SALMONELLA TYPHIMURIUM, Strain/Indicator: TA98, Metabolic Activation: NONE, Method: STANDARD PLATE); “active; positive” (Test System: AMES SALMONELLA TYPHIMURIUM, Strain/Indicator: TA98, Metabolic Activation: RAT, LIVER, S-9, AROCLOR 1254, Method: STANDARD PLATE); “active; positive” (Test System: AMES SALMONELLA TYPHIMURIUM, Strain/Indicator: TA98, Metabolic Activation: RAT, LIVER, S-9, CLOPHEN A50, Method: STANDARD PLATE); “inactive; negative” under setting [2]. Further, the mutagenic call by setting is: (Test System: AMES SALMONELLA TYPHIMURIUM, Strain/Indicator: TA100, Metabolic Activation: RAT, LIVER, S-9, AROCLOR 1254, Method: STANDARD PLATE) “inactive; negative”; (Test System: AMES SALMONELLA TYPHIMURIUM, Strain/Indicator: TA100, Metabolic Activation: RAT, LIVER, S-9, CLOPHEN A50, Method: STANDARD PLATE) “active; positive”; (Test System: AMES SALMONELLA TYPHIMURIUM, Strain/Indicator: TA1535, Metabolic Activation: NONE, Method: STANDARD PLATE) “inactive; negative”; (Test System: AMES SALMONELLA TYPHIMURIUM, Strain/Indicator: TA1535, Metabolic Activation: RAT, LIVER, S-9, CLOPHEN A50, Method: STANDARD PLATE) “inactive; negative”; (Test System: AMES SALMONELLA TYPHIMURIUM, Strain/Indicator: TA1537, Metabolic Activation: NONE, Method: STANDARD PLATE) “inactive; negative”; (Test System: AMES SALMONELLA TYPHIMURIUM, Strain/Indicator: TA1537, Metabolic Activation: RAT, LIVER, S-9, CLOPHEN A50, Method: STANDARD PLATE) “inactive; negative”.

For the molecule `CC#CC(OC(=O)NC1CCCCC1)(c1ccccc1)c1ccccc1`, the mutagenic call under setting [2] is “active; positive”.
